The target in one data set is Histamine H3 receptor (Rattus norvegicus, UniProt Q9QYN8). In words: Displacement of N-[3H]methylhistamine from histamine H3 receptor in rat cortex membrane. It is filed as cell membranes.
The next data set has as its target hERG (KCNH2) (Homo sapiens, UniProt Q12809). The data set is described as follows: Inhibition of human ERG at 3 uM by patch clamp assay. On the technique in general: Patch clamp records ionic current or voltage across a cell membrane.
The target in data set [1] is Histamine H4 receptor (Homo sapiens) (UniProt Q9H3N8). In words: Binding affinity to human histamine H4 receptor at 1 uM.
In data set [2] the target is Histamine H2 receptor (Homo sapiens) (UniProt P25021). In words: Binding affinity to human histamine H2 receptor at 1 uM.
The test system of another data set is Brain. The data set is described as follows: Drug level in Sprague-Dawley rat brain assessed as 4'-[2-((R)-2-Methyl-pyrrolidin-1-yl)-ethyl]-biphenyl-4-sulfonic Acid Amide level at 1 mg/kg, po after 3.5 hrs. The format is ADME, organism-based. Also noted: dose 1 mg/kg, route oral. The conditions noted are these: in vivo.
Data set [3] concerns Rattus norvegicus. In words: Increase in wakefulness in Sprague-Dawley rat at 1 mg/kg, po administered 4 hrs after lights out condition measured over 5 hrs period by polysomnographic method. The format is functional.
Data set [4] is described as follows: Plasma concentration in Sprague-Dawley rat at 10 mg/kg, po after 0.5 hrs. It is filed as ADME, organism-based. Also noted: dose 10 mg/kg, route oral.
The nature of data set [5]: Half life in Sprague-Dawley rat at 10 mg/kg, po up to 21 hrs. The format is ADME, organism-based. Also noted: dose 10 mg/kg, route oral. Particulars: in vivo.
Data set [6] relates to Rattus norvegicus. In words: Inhibition of (R)-alpha-methyl histamine induced drinking in Sprague-Dawley rat dipsogenia model at 1 mg/kg, po administered 0.5 hrs before (R)-alpha-methyl histamine challenge. It is filed as functional.
Another data set can be described thus: in vivo. The conditions noted are these: Sprague-Dawley, rat, brain/plasma, po, 10 mg/kg.
Data set [7] concerns the target Histamine H1 receptor (Homo sapiens) (UniProt P35367). In words: Binding affinity to human histamine H1 receptor at 1 uM.
For data set [8], the system named is Rattus norvegicus. In words: Increase in wakefulness in Sprague-Dawley rat at 0.1 mg/kg, po administered 4 hrs after lights out condition measured over 5 hrs period by polysomnographic method. The format is functional, organism-based. The arrangement: dose 0.1 mg/kg.
Data set [9] concerns Rattus norvegicus. In words: Inhibition of (R)-alpha-methyl histamine induced drinking in Sprague-Dawley rat dipsogenia model at 3 mg/kg, po administered 0.5 hrs before (R)-alpha-methyl histamine challenge. It is filed as functional.
The nature of data set [10]: Tmax in Sprague-Dawley rat at 10 mg/kg, po up to 21 hrs. The format is ADME, organism-based. The arrangement: dose 10 mg/kg, route oral. The conditions noted are these: in vivo.
Data set [11] is described as follows: Oral bioavailability in Sprague-Dawley rat at 10 mg/kg, po up to 21 hrs. The format is ADME, organism-based. The conditions noted are these: in vivo.
Data set [12] is described as follows: Drug level in Sprague-Dawley rat brain at 10 mg/kg, po after 0.5 hrs. Particulars: read-out: Drug uptake. The arrangement: dose 10 mg/kg, route oral. It is filed as ADME, organism-based.
Data set [13] concerns Rattus norvegicus. In words: Inhibition of (R)-alpha-methyl histamine induced drinking in Sprague-Dawley rat dipsogenia model at 0.3 mg/kg, po administered 0.5 hrs before (R)-alpha-methyl histamine challenge. It is filed as functional.

Activity calls are given as the source filed them. Some results are limits rather than exact numbers.

The term inhibition denotes how much of the control response was suppressed. A word on the half-life: it is the time needed for the level to fall by half in the phase considered. One may read the inhibition in vivo as how much of the control response was suppressed. Low values mean a response near the control, high ones a response far below the control. Usually Kp stands for the ratio of the level in a tissue or fluid to that in plasma or blood. For orientation: Tmax means the time from dosing to the highest level. For orientation: bioavailability means dose-corrected exposure relative to a reference, in per cent. High values mean much systemic uptake, low ones little systemic uptake.

Sequence of Histamine H2 receptor (Homo sapiens) (P25021 whole entry): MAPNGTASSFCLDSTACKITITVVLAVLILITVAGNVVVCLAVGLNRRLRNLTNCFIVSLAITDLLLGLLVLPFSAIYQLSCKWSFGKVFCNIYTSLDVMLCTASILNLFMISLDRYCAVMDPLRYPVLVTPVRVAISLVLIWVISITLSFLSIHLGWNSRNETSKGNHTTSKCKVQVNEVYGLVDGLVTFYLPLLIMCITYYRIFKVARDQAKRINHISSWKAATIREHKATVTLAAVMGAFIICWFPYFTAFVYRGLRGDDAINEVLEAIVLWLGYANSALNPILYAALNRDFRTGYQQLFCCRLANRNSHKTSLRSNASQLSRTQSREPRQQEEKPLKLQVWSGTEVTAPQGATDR
Sequence of Histamine H1 receptor (Homo sapiens) (P35367 whole entry): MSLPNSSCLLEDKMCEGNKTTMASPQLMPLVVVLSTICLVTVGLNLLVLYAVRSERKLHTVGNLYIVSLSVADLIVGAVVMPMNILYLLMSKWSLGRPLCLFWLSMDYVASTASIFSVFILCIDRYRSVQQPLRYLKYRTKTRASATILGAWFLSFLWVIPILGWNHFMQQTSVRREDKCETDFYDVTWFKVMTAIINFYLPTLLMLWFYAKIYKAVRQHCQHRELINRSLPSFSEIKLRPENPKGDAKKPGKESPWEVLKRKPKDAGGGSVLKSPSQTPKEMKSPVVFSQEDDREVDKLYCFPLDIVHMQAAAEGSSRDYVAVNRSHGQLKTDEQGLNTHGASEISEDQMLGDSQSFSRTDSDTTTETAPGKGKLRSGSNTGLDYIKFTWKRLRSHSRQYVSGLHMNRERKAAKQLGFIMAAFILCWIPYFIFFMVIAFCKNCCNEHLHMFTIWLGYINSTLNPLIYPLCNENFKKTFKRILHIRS
Sequence of hERG (KCNH2) (Q12809 whole entry): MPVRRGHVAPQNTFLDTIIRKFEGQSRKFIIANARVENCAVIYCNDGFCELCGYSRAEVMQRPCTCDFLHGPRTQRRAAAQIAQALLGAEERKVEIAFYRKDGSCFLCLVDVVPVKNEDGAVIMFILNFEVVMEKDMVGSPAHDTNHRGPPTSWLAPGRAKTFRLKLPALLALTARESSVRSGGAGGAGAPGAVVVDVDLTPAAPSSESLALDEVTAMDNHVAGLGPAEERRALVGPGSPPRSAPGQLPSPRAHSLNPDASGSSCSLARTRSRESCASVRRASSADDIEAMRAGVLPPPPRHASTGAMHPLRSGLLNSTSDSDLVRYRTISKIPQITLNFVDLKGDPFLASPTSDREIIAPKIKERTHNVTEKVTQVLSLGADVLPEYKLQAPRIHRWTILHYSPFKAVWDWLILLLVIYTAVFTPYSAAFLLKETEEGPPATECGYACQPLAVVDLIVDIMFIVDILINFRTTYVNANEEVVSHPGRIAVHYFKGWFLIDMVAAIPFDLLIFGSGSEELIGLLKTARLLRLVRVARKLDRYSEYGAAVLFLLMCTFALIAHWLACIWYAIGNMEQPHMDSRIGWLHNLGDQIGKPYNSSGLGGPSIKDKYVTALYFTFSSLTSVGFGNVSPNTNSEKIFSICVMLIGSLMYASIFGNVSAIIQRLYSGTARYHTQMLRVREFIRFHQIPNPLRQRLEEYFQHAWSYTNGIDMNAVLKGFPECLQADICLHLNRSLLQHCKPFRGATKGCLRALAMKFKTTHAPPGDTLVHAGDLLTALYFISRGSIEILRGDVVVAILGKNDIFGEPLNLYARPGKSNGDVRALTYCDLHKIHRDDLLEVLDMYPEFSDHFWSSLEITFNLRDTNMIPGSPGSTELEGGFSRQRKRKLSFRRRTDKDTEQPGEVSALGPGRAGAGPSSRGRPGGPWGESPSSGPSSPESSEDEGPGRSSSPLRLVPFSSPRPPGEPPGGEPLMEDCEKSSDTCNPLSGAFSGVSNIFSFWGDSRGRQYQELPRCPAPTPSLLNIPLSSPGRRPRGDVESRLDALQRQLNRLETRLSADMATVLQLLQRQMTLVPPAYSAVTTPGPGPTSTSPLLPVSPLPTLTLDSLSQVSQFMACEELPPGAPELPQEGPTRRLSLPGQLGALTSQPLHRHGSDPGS
Sequence of Histamine H4 receptor (Homo sapiens) (Q9H3N8 whole entry): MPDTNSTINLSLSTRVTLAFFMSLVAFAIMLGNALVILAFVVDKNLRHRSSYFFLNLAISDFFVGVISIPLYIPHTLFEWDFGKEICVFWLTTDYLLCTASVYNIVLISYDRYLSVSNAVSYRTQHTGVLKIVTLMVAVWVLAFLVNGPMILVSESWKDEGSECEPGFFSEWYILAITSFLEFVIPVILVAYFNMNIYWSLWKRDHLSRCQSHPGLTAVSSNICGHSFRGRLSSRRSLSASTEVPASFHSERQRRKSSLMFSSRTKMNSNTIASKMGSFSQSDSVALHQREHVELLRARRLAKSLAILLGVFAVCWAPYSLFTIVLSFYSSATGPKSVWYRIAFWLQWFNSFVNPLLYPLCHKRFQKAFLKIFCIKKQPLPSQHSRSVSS
Sequence of Histamine H3 receptor (Q9QYN8 whole entry): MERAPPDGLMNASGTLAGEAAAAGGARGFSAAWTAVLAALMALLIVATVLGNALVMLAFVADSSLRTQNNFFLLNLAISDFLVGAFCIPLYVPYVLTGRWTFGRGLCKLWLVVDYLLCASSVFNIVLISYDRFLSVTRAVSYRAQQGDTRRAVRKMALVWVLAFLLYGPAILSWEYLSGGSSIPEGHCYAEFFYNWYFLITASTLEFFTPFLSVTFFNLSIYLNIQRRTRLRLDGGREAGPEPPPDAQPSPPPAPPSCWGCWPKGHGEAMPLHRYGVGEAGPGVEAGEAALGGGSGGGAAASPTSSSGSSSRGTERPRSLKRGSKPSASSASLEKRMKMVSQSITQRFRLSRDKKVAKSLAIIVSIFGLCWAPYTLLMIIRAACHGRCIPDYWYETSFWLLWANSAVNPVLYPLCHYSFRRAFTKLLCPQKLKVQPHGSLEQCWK

As to `C[C@@H]1CCCN1CCc1ccc(-c2ccc(S(=O)(=O)N3Cc4ccccc4C3)cc2)cc1`, on Histamine H3 receptor (read-out: pKi (converted)), the Ki was 0.501 nM.
Consider `C[C@@H]1CCCN1CCc1ccc(-c2ccc(S(=O)(=O)NC(C)(C)CO)cc2)cc1`, for which testing at 3 µM at hERG (KCNH2) gave an inhibition of 37%.
Turning to `C[C@@H]1CCCN1CCc1ccc(-c2ccc(S(=O)(=O)N3CCS(=O)(=O)CC3)cc2)cc1`, the Ki at Histamine H3 receptor (read-out: pKi (converted)) is 0.933 nM.
As for `CCNS(=O)(=O)c1ccc(-c2ccc(CCN3CCC[C@H]3C)cc2)cc1`, the Activity in data set [1] is < 10%; in data set [2], < 10%; with Rattus norvegicus [3], 40%; in [7] it was < 10%. Further, in the data set on Brain, the Drug uptake was determined as 246 ng/mL. Moreover, the concentration at 0.5 h in [4] stood at 1600 ng/mL; in [12], 3600 ng/mL. The compound also had a half-life in data set [5] of 1.8 h. The inhibition in vivo at 1 mg/kg in the data set with Rattus norvegicus [6] amounted to 77.6%. The compound also displayed a Kp at 0.5 h in “in vivo” of 2.3. For the same compound, the result in the data set on Rattus norvegicus [8] was inactive. Also, the inhibition in vivo at 3 mg/kg in the data set with Rattus norvegicus [9] was determined as 69.6%. Besides, the Tmax in data set [10] was found to be 0.5 h. The bioavailability in data set [11] was 93%.
In the case of `C[C@@H]1CCCN1CCc1ccc(-c2ccc(S(=O)(=O)NC3CCC3)cc2)cc1`, on Histamine H3 receptor (read-out: pKi (converted)), the Ki is […]. Besides, testing at 3 µM against hERG (KCNH2) gave an inhibition of 79%.
Consider `C[C@@H]1CCCN1CCc1ccc(-c2ccc(S(=O)(=O)NCc3ccncc3)cc2)cc1`, for which, at Histamine H3 receptor (read-out: pKi (converted)), the Ki is 0.182 nM. Also, the inhibition at 3 µM against hERG (KCNH2) worked out at 27%.
Consider `CC(C)NS(=O)(=O)c1cccc(-c2ccc(CCN3CCC[C@H]3C)cc2)c1`, for which the Ki at Histamine H3 receptor (read-out: pKi (converted)) is 7.94 nM.
On the same count and under the same terms, next, `COC[C@H]1CCCN1S(=O)(=O)c1ccc(-c2ccc(CCN3CCC[C@H]3C)cc2)cc1`: […]; `C[C@@H]1CCCN1CCc1ccc(-c2ccc(S(=O)(=O)N3CC[C@H](O)C3)cc2)cc1`: 2.45 nM; `C[C@@H]1CCCN1CCc1ccc(-c2ccc(S(=O)(=O)N3CCCCC3)cc2)cc1`: […].
Consider `C[C@@H]1CCCN1CCc1ccc(-c2ccc(S(N)(=O)=O)cc2)cc1`, for which the Ki on Histamine H3 receptor (read-out: pKi (converted)) was […]. In addition, in [12], the concentration at 0.5 h was found to be 800 ng/g.
`C[C@@H]1CCCN1CCc1ccc(-c2ccc(S(=O)(=O)NCc3ccccc3)cc2)cc1`: the Ki at Histamine H3 receptor (read-out: pKi (converted)) is […]. This compound registered an inhibition at 3 µM on hERG (KCNH2) of 84%.
For the compound `CC1COCC(C)N1S(=O)(=O)c1ccc(-c2ccc(CCN3CCC[C@H]3C)cc2)cc1` (some centres undefined), at Histamine H3 receptor (read-out: pKi (converted)), the Ki is […].
For `COCCNS(=O)(=O)c1ccc(-c2ccc(CCN3CCC[C@H]3C)cc2)cc1`, the concentration at 0.5 h in data set [4] worked out at 11200 ng/mL; in data set [12], 8700 ng/mL. Besides, the Ki on Histamine H3 receptor (read-out: Ki) stood at 3 nM. The compound also gave a half-life in data set [5] of 2.6 h. In the data set with Rattus norvegicus [6], this compound registered an inhibition in vivo at 1 mg/kg of 40.7%. In the data set “in vivo”, this compound displayed a Kp at 0.5 h of 0.78. This compound had an inhibition at 3 µM against hERG (KCNH2) of 29%. Further, in the data set on Rattus norvegicus [9], the inhibition in vivo at 3 mg/kg turned out to be 96.7%. Besides, the time to peak (Tmax) in [10] stood at 0.2 h. In addition, the bioavailability in [11] is 22%.
As for `C[C@@H]1CCCN1CCc1ccc(-c2ccc(S(=O)(=O)NC3CCOCC3)cc2)cc1`, the Activity in data set [1], in [2] and in [7] was < 10% throughout. Moreover, the results for the concentration at 0.5 h in [4] and in [12] were 440 ng/mL and 140 ng/mL, respectively. In addition, the Ki on Histamine H3 receptor (read-out: Ki) stood at 2 nM. In [5], the half-life is 2.3 h. Also, in the data set with Rattus norvegicus [6], at 1 mg/kg the inhibition in vivo was 77.5%. In the data set “in vivo”, the Kp at 0.5 h came to 0.32. In addition, the inhibition in vivo at 3 mg/kg in the data set on Rattus norvegicus [9] was 85.1%. In addition, in [10], the Tmax is 0.8 h. This compound registered a bioavailability in [11] of 62%.
As to `CCN(CC)S(=O)(=O)c1cccc(-c2ccc(CCN3CCC[C@H]3C)cc2)c1`, on Histamine H3 receptor (read-out: pKi (converted)), the Ki was 16.2 nM.
On to `COC1CCN(S(=O)(=O)c2ccc(-c3ccc(CCN4CCC[C@H]4C)cc3)cc2)CC1`, for which the Ki on Histamine H3 receptor (read-out: pKi (converted)) is […].
Turning to `CCNS(=O)(=O)c1cccc(-c2ccc(CCN3CCC[C@H]3C)cc2)c1`, the Ki on Histamine H3 receptor (read-out: pKi (converted)) is 11 nM.
Consider `C[C@@H]1CCCN1CCc1ccc(-c2ccc(S(=O)(=O)N3CCOCC3)cc2)cc1`, for which the Activity in data set [1], in data set [2] and in [7] was < 10% in each case. For the same compound, the values for the concentration at 0.5 h in data set [4] and in [12] were 160 ng/mL and 320 ng/mL, respectively. Also, the Ki at Histamine H3 receptor (read-out: Ki) worked out at 2 nM. Besides, in data set [5], the half-life was 1.2 h. This compound returned an inhibition in vivo at 1 mg/kg with Rattus norvegicus [6] of 99.8%. The Tmax in [10] worked out at 1.7 h. In the data set with Rattus norvegicus [13], this compound showed an inhibition in vivo at 0.3 mg/kg of 34.1%. The bioavailability in data set [11] turned out to be 12%.
In the case of `CCN(CC)S(=O)(=O)c1ccc(-c2ccc(CCN3CCC[C@H]3C)cc2)cc1`, on Histamine H3 receptor (read-out: pKi (converted)), the Ki was 1.41 nM.
As for `C[C@@H]1CCCN1CCc1ccc(-c2ccc(S(=O)(=O)NCC3CC3)cc2)cc1`, the inhibition at 3 µM against hERG (KCNH2) worked out at 54%.
As to `C[C@@H]1CCCN1CCc1ccc(-c2cccc(S(=O)(=O)N3CCCCC3)c2)cc1`, on Histamine H3 receptor (read-out: pKi (converted)), the Ki is 12.6 nM.

The values above are taken from ChEMBL document CHEMBL1153532, “Design and evaluation of novel biphenyl sulfonamide derivatives with potent histamine H(3) receptor inverse agonist activity” (J Med Chem, 2009).
